Data reported in patent publication US10004701B2, “Methods and compositions for treating infection” (UNIVERSITY OF ROCHESTER, priority 2012, dated 2018).
Counter-ions that a name gives are not always drawn. Like-named read-outs stand apart in the source and are kept apart here.

Legend:
Assay in all cases: AK assay 384-well format, Prestwick library screening
E. faecium = type: cell-based, Enterococcus faecium; settings: Enterococcus faecium, 3 h, 50 μM final drug concentration
[1] = test system: S. aureus strain USA300-0114; type: cell-based, Staphylococcus aureus; settings: Staphylococcus aureus, USA300, 3 h, 50 μM final drug concentration
K. pneumoniae = type: cell-based, Klebsiella pneumoniae; settings: Klebsiella pneumoniae, 3 h, 50 μM final drug concentration
[2] = test system: A. baumannii strain 98-37-09; type: cell-based, Acinetobacter baumannii; settings: Acinetobacter baumannii, 983709, 3 h, 50 μM final drug concentration
P. aeruginosa = type: cell-based, Pseudomonas aeruginosa; settings: Pseudomonas aeruginosa, 3 h, 50 μM final drug concentration
E. cloacae = type: cell-based, Enterobacter cloacae; settings: Enterobacter cloacae, 3 h, 50 μM final drug concentration
E. coli = type: cell-based, Escherichia coli; settings: Escherichia coli, 3 h, 50 μM final drug concentration
[3] = planktonic E. faecium, 384-well, cutoff for positive-scoring molecules 3-fold increase, read-out: AK-based Prestwick Library Screening Results: E. faecium (increase in extracellular AK activity)
[4] = planktonic S. aureus, 384-well, cutoff for positive-scoring molecules 3-fold increase, read-out: AK-based Prestwick Library Screening Results: S. aureus (increase in extracellular AK activity)
[5] = planktonic K. pneumoniae, 384-well, cutoff for positive-scoring molecules 3-fold increase, read-out: AK-based Prestwick Library Screening Results: K. pneumoniae (increase in extracellular AK activity)
[6] = planktonic A. baumannii, 384-well, cutoff for positive-scoring molecules 3-fold increase, read-out: AK-based Prestwick Library Screening Results: A. baumannii (increase in extracellular AK activity)
[7] = planktonic P. aeruginosa, 384-well, cutoff for positive-scoring molecules 3-fold increase, read-out: AK-based Prestwick Library Screening Results: P. aeruginosa (increase in extracellular AK activity)
[8] = planktonic E. cloacae, 384-well, cutoff for positive-scoring molecules 3-fold increase, read-out: AK-based Prestwick Library Screening Results: E. cloacae (increase in extracellular AK activity)
[9] = planktonic E. coli, 384-well, cutoff for positive-scoring molecules 3-fold increase, read-out: AK-based Prestwick Library Screening Results: E. coli (increase in extracellular AK activity)

## CN1CCN(CCCN2c3ccccc3Sc3ccc(C(F)(F)F)cc32)CC1 [Trifluoperazine dihydrochloride]
E. faecium; [3]
  fold induction at 50 µM: 1.1
[1]; [4]
  fold induction at 50 µM: 1.2
K. pneumoniae; [5]
  fold induction at 50 µM: 1.5
[2]; [6]
  fold induction at 50 µM: 3.4
P. aeruginosa; [7]
  fold induction at 50 µM: 1.4
E. cloacae; [8]
  fold induction at 50 µM: 1.3
E. coli; [9]
  fold induction at 50 µM: 1.7

## CCn1cc(C(=O)O)c(=O)c2cnc(N3CCCC3)nc21 [Piromidic acid]
E. faecium; planktonic, cutoff for positive-scoring molecules 3-fold increase, read-out: AK-based Prestwick Library Screening Results, E. faecium (fold increase in extracellular AK activity)
  fold induction at 50 µM: 0.9
[1]; planktonic, cutoff for positive-scoring molecules 3-fold increase, read-out: AK-based Prestwick Library Screening Results, S. aureus (fold increase in extracellular AK activity)
  fold induction at 50 µM: 0.7
K. pneumoniae; planktonic, cutoff for positive-scoring molecules 3-fold increase, read-out: AK-based Prestwick Library Screening Results, K. pneumoniae (fold increase in extracellular AK activity)
  fold induction at 50 µM: 0.6
[2]; planktonic, cutoff for positive-scoring molecules 3-fold increase, read-out: AK-based Prestwick Library Screening Results, A. baumannii (fold increase in extracellular AK activity)
  fold induction at 50 µM: 0.5
P. aeruginosa; planktonic, cutoff for positive-scoring molecules 3-fold increase, read-out: AK-based Prestwick Library Screening Results, P. aeruginosa (fold increase in extracellular AK activity)
  fold induction at 50 µM: 0.5
E. cloacae; planktonic, cutoff for positive-scoring molecules 3-fold increase, read-out: AK-based Prestwick Library Screening Results, E. cloacae (fold increase in extracellular AK activity)
  fold induction at 50 µM: 0.6
E. coli; planktonic, cutoff for positive-scoring molecules 3-fold increase, read-out: AK-based Prestwick Library Screening Results, E. coli (fold increase in extracellular AK activity)
  fold induction at 50 µM: 0.6

## CCN(CC)CCOC(=O)c1ccc(N)cc1 [Procaine hydrochloride]
E. faecium; 384-well format, cutoff for positive-scoring molecules 3-fold increase, read-out: AK-based Prestwick Library Screening Results, E. faecium (increase in extracellular AK activity)
  fold induction at 50 µM: 0.9
[1]; 384-well format, cutoff for positive-scoring molecules 3-fold increase, read-out: AK-based Prestwick Library Screening Results, S. aureus (increase in extracellular AK activity)
  fold induction at 50 µM: 1.2
K. pneumoniae; 384-well format, cutoff for positive-scoring molecules 3-fold increase, read-out: AK-based Prestwick Library Screening Results, K. pneumoniae (increase in extracellular AK activity)
  fold induction at 50 µM: 1
[2]; 384-well format, cutoff for positive-scoring molecules 3-fold increase, read-out: AK-based Prestwick Library Screening Results, A. baumannii (increase in extracellular AK activity)
  fold induction at 50 µM: 1.1
P. aeruginosa; 384-well format, cutoff for positive-scoring molecules 3-fold increase, read-out: AK-based Prestwick Library Screening Results, P. aeruginosa (increase in extracellular AK activity)
  fold induction at 50 µM: 1
E. cloacae; 384-well format, cutoff for positive-scoring molecules 3-fold increase, read-out: AK-based Prestwick Library Screening Results, E. cloacae (increase in extracellular AK activity)
  fold induction at 50 µM: 1.4
E. coli; 384-well format, cutoff for positive-scoring molecules 3-fold increase, read-out: AK-based Prestwick Library Screening Results, E. coli (increase in extracellular AK activity)
  fold induction at 50 µM: 1.2

## C[N+]1(C)CCC(=C(c2ccccc2)c2ccccc2)CC1 [Diphemanil methylsulfate]
E. faecium; planktonic E. faecium, 384-well, […], read-out: AK-based Prestwick Library Screening Results: E. faecium (increase in extracellular AK activity)
  fold induction at 50 µM: 1.1
[1]; planktonic S. aureus, 384-well, […], read-out: AK-based Prestwick Library Screening Results: S. aureus (increase in extracellular AK activity)
  fold induction at 50 µM: 1.5
K. pneumoniae; planktonic K. pneumoniae, 384-well, […], read-out: AK-based Prestwick Library Screening Results: K. pneumoniae (increase in extracellular AK activity)
  fold induction at 50 µM: 1.1
[2]; planktonic A. baumannii, 384-well, […], read-out: AK-based Prestwick Library Screening Results: A. baumannii (increase in extracellular AK activity)
  fold induction at 50 µM: 1.3
P. aeruginosa; planktonic P. aeruginosa, 384-well, […], read-out: AK-based Prestwick Library Screening Results: P. aeruginosa (increase in extracellular AK activity)
  fold induction at 50 µM: 1
E. cloacae; planktonic E. cloacae, 384-well, […], read-out: AK-based Prestwick Library Screening Results: E. cloacae (increase in extracellular AK activity)
  fold induction at 50 µM: 1.6
E. coli; planktonic E. coli, 384-well, […], read-out: AK-based Prestwick Library Screening Results: E. coli (increase in extracellular AK activity)
  fold induction at 50 µM: 1.2

## CC[C@H]1CN2CC[C@H]1C[C@H]2[C@H](O)c1ccnc2ccc(OC)cc12 [Hydroquinine hydrobromide hydrate]
E. faecium; planktonic, cutoff for positive 3-fold increase, read-out: AK-based Prestwick Library Screening Results, E. faecium (fold increase in extracellular AK activity)
  fold induction at 50 µM: 1.1
[1]; planktonic, cutoff for positive 3-fold increase, read-out: AK-based Prestwick Library Screening Results, S. aureus (fold increase in extracellular AK activity)
  fold induction at 50 µM: 1
K. pneumoniae; planktonic, cutoff for positive 3-fold increase, read-out: AK-based Prestwick Library Screening Results, K. pneumoniae (fold increase in extracellular AK activity)
  fold induction at 50 µM: 1.3
[2]; planktonic, cutoff for positive 3-fold increase, read-out: AK-based Prestwick Library Screening Results, A. baumannii (fold increase in extracellular AK activity)
  fold induction at 50 µM: 1.2
P. aeruginosa; planktonic, cutoff for positive 3-fold increase, read-out: AK-based Prestwick Library Screening Results, P. aeruginosa (fold increase in extracellular AK activity)
  fold induction at 50 µM: 1.2
E. cloacae; planktonic, cutoff for positive 3-fold increase, read-out: AK-based Prestwick Library Screening Results, E. cloacae (fold increase in extracellular AK activity)
  fold induction at 50 µM: 1.6
E. coli; planktonic, cutoff for positive 3-fold increase, read-out: AK-based Prestwick Library Screening Results, E. coli (fold increase in extracellular AK activity)
  fold induction at 50 µM: 1.2

## CN1CCOC(c2ccccc2)c2ccccc2C1 (centres unmarked) [Nefopam hydrochloride]
E. faecium; [3]
  fold induction at 50 µM: 1
[1]; [4]
  fold induction at 50 µM: 1.1
K. pneumoniae; [5]
  fold induction at 50 µM: 0.9
[2]; [6]
  fold induction at 50 µM: 1.4
P. aeruginosa; [7]
  fold induction at 50 µM: 1.2
E. cloacae; [8]
  fold induction at 50 µM: 1.4
E. coli; [9]
  fold induction at 50 µM: 1.2

## NC(=O)N/N=C/c1ccc([N+](=O)[O-])o1 [Nitrofural]
E. faecium; planktonic E. faecium, cutoff for positive-scoring molecules 3-fold increase, read-out: AK-based Prestwick Library Screening Results, E. faecium (increase in extracellular AK activity)
  fold induction at 50 µM: 1
[1]; planktonic S. aureus, cutoff for positive-scoring molecules 3-fold increase, read-out: AK-based Prestwick Library Screening Results, S. aureus (increase in extracellular AK activity)
  fold induction at 50 µM: 0.5
K. pneumoniae; planktonic K. pneumoniae, cutoff for positive-scoring molecules 3-fold increase, read-out: AK-based Prestwick Library Screening Results, K. pneumoniae (increase in extracellular AK activity)
  fold induction at 50 µM: 0.2
[2]; planktonic A. baumannii, cutoff for positive-scoring molecules 3-fold increase, read-out: AK-based Prestwick Library Screening Results, A. baumannii (increase in extracellular AK activity)
  fold induction at 50 µM: 1
P. aeruginosa; planktonic P. aeruginosa, cutoff for positive-scoring molecules 3-fold increase, read-out: AK-based Prestwick Library Screening Results, P. aeruginosa (increase in extracellular AK activity)
  fold induction at 50 µM: 0.8
E. cloacae; planktonic E. cloacae, cutoff for positive-scoring molecules 3-fold increase, read-out: AK-based Prestwick Library Screening Results, E. cloacae (increase in extracellular AK activity)
  fold induction at 50 µM: 0.8
E. coli; planktonic E. coli, cutoff for positive-scoring molecules 3-fold increase, read-out: AK-based Prestwick Library Screening Results, E. coli (increase in extracellular AK activity)
  fold induction at 50 µM: 0.7

## CNC1(C)C2CCC(C2)C1(C)C (centres unmarked) [Mecamylamine hydrochloride]
E. faecium; planktonic E. faecium, positive cutoff 3-fold increase, read-out: AK-based Prestwick library screening result, E. faecium (fold increase in extracellular AK activity)
  fold induction at 50 µM: 1.1
[1]; planktonic S. aureus, positive cutoff 3-fold increase, read-out: AK-based Prestwick library screening result, S. aureus (fold increase in extracellular AK activity)
  fold induction at 50 µM: 1.4
K. pneumoniae; planktonic K. pneumoniae, positive cutoff 3-fold increase, read-out: AK-based Prestwick library screening result, K. pneumoniae (fold increase in extracellular AK activity)
  fold induction at 50 µM: 1
[2]; planktonic A. baumannii, positive cutoff 3-fold increase, read-out: AK-based Prestwick library screening result, A. baumannii (fold increase in extracellular AK activity)
  fold induction at 50 µM: 1.2
P. aeruginosa; planktonic P. aeruginosa, positive cutoff 3-fold increase, read-out: AK-based Prestwick library screening result, P. aeruginosa (fold increase in extracellular AK activity)
  fold induction at 50 µM: 1.1
E. cloacae; planktonic E. cloacae, positive cutoff 3-fold increase, read-out: AK-based Prestwick library screening result, E. cloacae (fold increase in extracellular AK activity)
  fold induction at 50 µM: 1.6
E. coli; planktonic E. coli, positive cutoff 3-fold increase, read-out: AK-based Prestwick library screening result, E. coli (fold increase in extracellular AK activity)
  fold induction at 50 µM: 1.4
